Laboratory results published in patent US20250353873A1, “COMPOUNDS AND METHODS FOR MODULATING APOE EXPRESSION” (Ionis Pharmaceuticals, Inc., priority 2024, published 2025).
Strand notation (5' to 3'): a small letter for the sugar, then the base; units joined by * are phosphorothioate-linked, units joined directly phosphodiester-linked; [ ] holds rarer units or linkages, { } end groups; capitals alone tell only the bases. [ms] = mesyl phosphoramidate linkage; e = 2'-O-(2-methoxyethyl) (MOE); k = constrained ethyl (cEt); [5mC] = 5-methylcytosine; d = 2'-deoxy (DNA)

What was measured:
human APOE RNA [1] = assay: Activity in APOE C57BL/6NTac-Apoeem7250 knock-in mice, single ICV bolus, 16 weeks (Example 12); type: in vivo; settings: single ICV bolus 300 μg, 16 weeks post treatment, normalized to mouse Ppia
Procedure: (§1) Modified oligonucleotides described above were tested in the APOE C57BL/6NTac-Apoeem7250 knock-in mouse model described above.
APOE C57BL/6NTac-Apoeem7250 knock-in mice were divided into groups of 3-4 mice each. Each mouse received a single intracerebroventricular (ICV) bolus of 300 μg of modified oligonucleotide. A group of 4 mice received a single ICV bolus with PBS as a negative control.
(§2) Sixteen weeks post treatment, mice were sacrificed and RNA was extracted from cortical brain tissue and spinal cord for quantitative real-time RT-PCR analysis of RNA expression of APOE using primer probe set RTS3073 (described herein above). APOE RNA levels were normalized to mouse Ppia. Mouse Ppia was amplified using primer probe set m_cyclo24 (described herein above). Results are presented as percent human APOE RNA relative to the amount of human APOE RNA in PBS treated animals, (% control). Each experiment is identified in separate tables below.

human APOE RNA [2] = assay: Activity in APOE C57BL/6NTac-Apoeem7250 knock-in mice, single ICV bolus, 8 weeks (Example 11); type: in vivo; settings: for APOE RNA (% control) Cortex / APOE RNA (% control) Spinal Cord: single ICV bolus 300 μg, 8 weeks post treatment, normalized to mouse Ppia
Procedure: as §1
Each mouse received a single ICV bolus of 300 μg of modified oligonucleotide. A group of 3-4 mice received a single ICV bolus with PBS as a negative control.
as §2, with “Eight weeks post” for “Sixteen weeks post”, “APOE using human primer probe” for “APOE using primer probe”

| Substance | APOE RNA (% control) Cortex (human APOE RNA [1]; cortex) [% control] | APOE RNA (% control) Spinal Cord (human APOE RNA [1]; spinal cord) [% control] | APOE RNA (% control) Cortex (human APOE RNA [2]) [% control] | APOE RNA (% control) Spinal Cord (human APOE RNA [2]) [% control] | reduction of human APOE RNA in the cortex (human APOE RNA [2]; APOE knock-in mouse model, 8 weeks post administration, assay of Example 11) [%] |
| --- | --- | --- | --- | --- | --- |
| 1652903: 6-10-4 MOE gapmer ACTTGGTGAATCTTTATTAA, linkages sooooossssssssssoss (antisense eA*e[5mC]eTeTeGeGdT*dG*dA*dA*dT*d[5mC]*dT*dT*dT*dA*eTeT*eA*eA) [compound 1652903] | 87 | 39 | 49 | 19 |  |
| 1652909: 5-10-5 MOE gapmer GGTGAATCTTTATTAAACTA, linkages soooszzzzssssssooss (antisense eG*eGeTeGeA*dA[ms]dT[ms]d[5mC][ms]dT[ms]dT*dT*dA*dT*dT*dA*eAeAe[5mC]*eT*eA) [compound 1652909] |  |  | 55 | 23 |  |
| 1652910: 5-10-5 MOE gapmer GGTGAATCTTTATTAAACTA, linkages sooosszzsssssssooss (antisense eG*eGeTeGeA*dA*dT[ms]d[5mC][ms]dT*dT*dT*dA*dT*dT*dA*eAeAe[5mC]*eT*eA) [compound 1652910] |  |  | 82 | 39 |  |
| 1652911: 5-10-5 MOE gapmer GGTGAATCTTTATTAAACTA, linkages sooosszzzssssssooss (antisense eG*eGeTeGeA*dA*dT[ms]d[5mC][ms]dT[ms]dT*dT*dA*dT*dT*dA*eAeAe[5mC]*eT*eA) [compound 1652911] |  |  | 130 | 57 |  |
| 1652912: 5-10-5 MOE gapmer GGTGAATCTTTATTAAACTA, linkages sooossssssszsszooss (antisense eG*eGeTeGeA*dA*dT*d[5mC]*dT*dT*dT*dA[ms]dT*dT*dA[ms]eAeAe[5mC]*eT*eA) [compound 1652912] |  |  | 95 | 41 |  |
| 1652913: 5-10-5 MOE gapmer GGTGAATCTTTATTAAACTA, linkages soooszssssszsszooss (antisense eG*eGeTeGeA*dA[ms]dT*d[5mC]*dT*dT*dT*dA[ms]dT*dT*dA[ms]eAeAe[5mC]*eT*eA) [compound 1652913] |  |  | 75 | 33 |  |
| 1652914: 5-10-5 MOE gapmer GGTGAATCTTTATTAAACTA, linkages soooszzssssssszooss (antisense eG*eGeTeGeA*dA[ms]dT[ms]d[5mC]*dT*dT*dT*dA*dT*dT*dA[ms]eAeAe[5mC]*eT*eA) [compound 1652914] |  |  | 108 | 43 |  |
| 1652916: 5-10-5 MOE gapmer GGTGAATCTTTATTAAACTA, linkages soooszzzsssssszooss (antisense eG*eGeTeGeA*dA[ms]dT[ms]d[5mC][ms]dT*dT*dT*dA*dT*dT*dA[ms]eAeAe[5mC]*eT*eA) [compound 1652916] |  |  | 128 | 49 |  |
| 1652917: 6-10-4 MOE gapmer GGTGAATCTTTATTAAACTA, linkages sooooossssszsszzoss (antisense eG*eGeTeGeAeAdT*d[5mC]*dT*dT*dT*dA[ms]dT*dT*dA[ms]dA[ms]eAe[5mC]*eT*eA) [compound 1652917] |  |  | 107 | 41 |  |
| 1652918: 6-10-4 MOE gapmer GGTGAATCTTTATTAAACTA, linkages sooooozzzsssssssoss (antisense eG*eGeTeGeAeAdT[ms]d[5mC][ms]dT[ms]dT*dT*dA*dT*dT*dA*dA*eAe[5mC]*eT*eA) [compound 1652918] |  |  | 91 | 47 |  |
| 1652919: 6-10-4 MOE gapmer GGTGAATCTTTATTAAACTA, linkages soooooszzzssssssoss (antisense eG*eGeTeGeAeAdT*d[5mC][ms]dT[ms]dT[ms]dT*dA*dT*dT*dA*dA*eAe[5mC]*eT*eA) [compound 1652919] |  |  | 90 | 54 |  |
| 1809688: mixed MOE/cEt gapmer CTTGGTGAATCTTTATTAA, sugar eeeekddddddddddkkee, linkages sosssszzzssssszoss (e[5mC]*eTeT*eG*kG*dT*dG[ms]dA[ms]dA[ms]dT*d[5mC]*dT*dT*dT*dA[ms]kTkT*eA*eA) [compound 1809688] |  |  | 22 | 37 |  |
| 1809690: mixed MOE/cEt gapmer CTTGGTGAATCTTTATTAA, sugar eeeekddddddddddkkek, linkages sosssszzzssssszoss (e[5mC]*eTeT*eG*kG*dT*dG[ms]dA[ms]dA[ms]dT*d[5mC]*dT*dT*dT*dA[ms]kTkT*eA*kA) [compound 1809690] |  |  | 26 | 24 |  |
| 1809691: mixed MOE/cEt gapmer CTTGGTGAATCTTTATTAA, sugar eeeekddddddddddkeek, linkages sosssszzzssssszoss (e[5mC]*eTeT*eG*kG*dT*dG[ms]dA[ms]dA[ms]dT*d[5mC]*dT*dT*dT*dA[ms]kTeT*eA*kA) [compound 1809691] |  |  | 27 | 17 |  |
| 1809741: mixed MOE/cEt gapmer CTTGGTGAATCTTTATTAAAC, sugar eeeeekddddddddddeeeee, linkages ssoooszzsssssszsooss (e[5mC]*eT*eTeGeGkT*dG[ms]dA[ms]dA*dT*d[5mC]*dT*dT*dT*dA[ms]dT*eTeAeA*eA*e[5mC]) [compound 1809741] |  |  | 33 | 28 |  |
| 1809744: mixed MOE/cEt gapmer CTTGGTGAATCTTTATTAAAC, sugar eeeekkddddddddddeeeee, linkages zsoooszzsssssszsoosz (e[5mC][ms]eT*eTeGkGkT*dG[ms]dA[ms]dA*dT*d[5mC]*dT*dT*dT*dA[ms]dT*eTeAeA*eA[ms]e[5mC]) [compound 1809744] |  |  | 19 | 11 |  |
| 1809745: mixed MOE/cEt gapmer CTTGGTGAATCTTTATTAAAC, sugar eeeeekddddddddddeeeee, linkages zsoooszzsssssszsoosz (e[5mC][ms]eT*eTeGeGkT*dG[ms]dA[ms]dA*dT*d[5mC]*dT*dT*dT*dA[ms]dT*eTeAeA*eA[ms]e[5mC]) [compound 1809745] |  |  | 26 | 16 |  |
| 1809813 (eT*eTeGkG*dT*dG[ms]dA[ms]dA[ms]dT*d[5mC]*dT*dT*dT*dA[ms]kT*kT*eA*eA*eA*e[5mC]; antisense) [Compound 1809813] |  |  | 37 | 32 |  |
| 1809818 (eT*eTeGkG*dT*dG[ms]dA[ms]dA[ms]dT*d[5mC]*dT*dT*dT*dA[ms]kT*kTeAeA*eA*e[5mC]; antisense) [Compound 1809818] |  |  | 42 | 36 |  |
| 1810063: mixed MOE/cEt gapmer CTTGGTGAATCTTTATTAAAC, sugar eeeeeeddddddddddkkeee, linkages ssoosszzzssssszsooss (e[5mC]*eT*eTeGeG*eT*dG[ms]dA[ms]dA[ms]dT*d[5mC]*dT*dT*dT*dA[ms]dT*kTkAeA*eA*e[5mC]) [compound 1810063] |  |  | 43 | 40 |  |
| 1810065: mixed MOE/cEt gapmer CTTGGTGAATCTTTATTAAAC, sugar eeeeekddddddddddeeeee, linkages ssoosszzzssssszsooss (listed as DNA, chemistry not fully specified) [compound 1810065] |  |  | 29 | 21 |  |
| 1810069: mixed MOE/cEt gapmer CTTGGTGAATCTTTATTAAAC, sugar eeeeekddddddddddeeeee, linkages zsossszzzssssszsoosz (e[5mC][ms]eT*eTeG*eG*kT*dG[ms]dA[ms]dA[ms]dT*d[5mC]*dT*dT*dT*dA[ms]dT*eTeAeA*eA[ms]e[5mC]) [compound 1810069] |  |  | 24 | 27 |  |
| Compound No. 1517578: comparator of WO 2022/066956; CTTGGTGAATCTTTATTAAA, sugar eeeeeddddddddddeeeee, linkages sooosssssssssssooss (MOE gapmer, mixed PS/PO linkages, chemistry not fully specified) [reference compound] |  |  | 66 | 47 | 34 |
